Source: patent US8987514B2, “Compositions and methods for labeling and imaging phospholipids” (President and Fellows of Harvard College, priority 2009, dated 2015)

Test system: NIH-3T3 cells
Conditions: for incorporation of azide choline analogs into phospholipids: FIG. 8 legend
From the text: After incorporation into phospholipids, azidophosphatidylcholine molecules can be detected by specifically reacting them with a fluorescent conjugate of dibenzo-cyclooctyne (DBCO), in a strain-promoted azide-alkyne cycloaddition reaction, also known as the copper-free “click” reaction (FIG. 9). In addition, azidophosphatidylcholine molecules can be reacted with a biotin-phosphine, followed by the detection of the biotinylated phospholipid species using labeled streptavidin (FIG. 10).
Cultured NIH-3T3 cells on coverslips were incubated overnight in complete media (DMEM with 10% bovine calf serum) in the absence or presence of 1 mM azidopropyl-choline. The cells were then washed with PBS, fixed with 3.7% formaldehyde in PBS, washed with TBS and then reacted with 40 microM biotin-phosphine in TBS supplemented with 1 mM DTT, for 3 hours at room temperature. The cells were then washed successively with TBS, 0.5 M NaCl, and TBS. Non-specific binding sites were blocked by incubation with blocking buffer (4% bovine serum albumin in TBS), followed by staining with Alexa488-streptavidin (1 microg/mL in blocking buffer). The cells were then washed with TBS (at least 4 washes, at 5 minutes each), mounted and imaged by fluorescence microscopy.
Cultured NIH-3T3 cells were transiently transfected with the plasmid pDsRed-Mito (Clontech), which labels mitochondria red. The cells were then incubated overnight in complete media, in the absence or presence of 500 microM azidoethyl-choline. The cells were washed with PBS, fixed with 3.7% formaldehyde in PBS, washed with TBS and then reacted with 20 microM Alexa488-DBCO in TBS, for 30 minutes at room temperature. Unreacted Alexa488-DBCO was removed by washing successively with TBS, 0.5 M NaCl, and TBS. The cells were then imaged by fluorescence microscopy.

azidoethyl-choline
incorporation of azide choline analogs into phospholipids: efficiently incorporated into phospholipids in vivo
subcellular distribution of azidoethylcholine-labeled phospholipids (NIH-3T3 cells, 500 microM overnight, DsRed-Mito marker, Alexa488-DBCO, FIG. 12): localize to several populations of cellular membranes, including the mitochondrial membrane

azidopropyl-choline
incorporation of azide choline analogs into phospholipids: efficiently incorporated into phospholipids in vivo
